Data on twelve compounds can be found in PubChem BioAssay (NCI).

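Step 1: Grow cells in 96-well plates. Step 2: Expose to compound for 48 hours at 5 concentrations. Step 3: Interpolate endpoints linearly; if unreached, use highest concentration. GI50 marks 50% less growth. TGI: total growth inhibition.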 Some results are limits rather than exact numbers.

Assay in all cases: growth of human tumour cells (NCI), 48 h
Test [1] has as its system NCI-H226 lung.
The subject of test [2] is K-562 leukemia.
Test [3] deals with RXF 393 renal.
For test [4], the system named is SK-OV-3 ovarian.
For test [5], the system named is HT29 colon.
Test [6] concerns RPMI-8226 leukemia.
In test [7] the test system is OVCAR-5 ovarian.

For the compound `O=C1/C(=C/c2ccccc2Br)COc2ccc(O)c(O)c21`, the GI50 in test [1] was 2.75 µM; in test [2] it was 0.339 µM; in test [3], 1.66 µM; in test [4], 3.95 µM; in test [5] it was 3.37 µM; in test [6], 0.261 µM. In addition, in test [7], the GI50 is 2.15 µM. Also, the TGI was 8.19 µM in test [1]; over 100 µM in test [2]; 3.22 µM in test [3]; 15 µM in test [4]; 10.4 µM in test [5]; 0.682 µM in test [6]. Moreover, the TGI in test [7] came to 4.39 µM.

For `CCC(c1ccc(OC)cc1)C(CC)c1ccc(O)c(CN2CCCC2)c1` (configuration not stated), the GI50 in test [1] is 5.9 µM; in test [2], 1.61 µM; in test [3] it was 2.81 µM; in test [4], 3.68 µM; in test [5], 2.18 µM; in test [6] it was 2.24 µM. The GI50 in test [7] is 12.3 µM. Besides, the TGI amounted to 24.7 µM in test [1]; 5.59 µM in test [2]; 7.55 µM in test [3]; 12.9 µM in test [4]; 5.78 µM in test [5]; 6.28 µM in test [6]. Also, in test [7], the TGI was determined as 27.8 µM.

Consider `COc1cccc(-c2nc(-c3ccc(NC(=O)c4ccccc4)cc3)[nH]c2-c2ccnc(Br)c2)c1`, for which the GI50 is 2.95 µM in test [1]; 1.67 µM in test [2]; 0.266 µM in test [3]; 3.05 µM in test [4]; 2.69 µM in test [5]; 0.398 µM in test [6]. Moreover, the GI50 in test [7] was 6.09 µM. Also, the TGI is over 100 µM in test [1]; over 100 µM in test [2]; 0.81 µM in test [3]; 8.24 µM in test [4]; over 100 µM in test [5]; 2.11 µM in test [6]. The same compound displayed a TGI in test [7] of over 100 µM.

Take `N#Cc1ccc(-c2nc3ccc(Cl)cc3[nH]2)cc1`: the TGI in test [1], in test [2], in test [3], in test [4], in test [5] and in test [6] was over 100 µM each time.

`O=C1/C(=C/c2ccccc2)CN(CCC(=O)N2C/C(=C\c3ccccc3)C(=O)/C(=C/c3ccccc3)C2)C/C1=C\c1ccccc1`: the GI50 was 12.7 µM in test [1]; 0.494 µM in test [2]; 6.65 µM in test [3]; 24.9 µM in test [4]; 0.635 µM in test [5]; 0.046 µM in test [6]. Besides, the GI50 in test [7] was 33.1 µM. Besides, the TGI in test [1] is 41.3 µM; in test [2] it was over 100 µM; in test [3], 19.9 µM; in test [4], over 75.2 µM; in test [5], over 55.9 µM; in test [6], 0.5 µM. This compound also had a TGI in test [7] of over 91.3 µM.

As to `NC(=O)c1cc(Cl)ccc1NC(=O)c1ccccc1-c1ccccc1`, the GI50 in test [1] was 18.4 µM; in test [2], 0.416 µM; in test [3] it was 0.806 µM; in test [4], 0.677 µM; in test [5], 0.385 µM; in test [6], 2.1 µM. Moreover, the GI50 in test [7] was 4.12 µM. Besides, the TGI in test [1] was over 100 µM; in test [2], over 100 µM; in test [3] it was 5.52 µM; in test [4], 11.3 µM; in test [5] it was 11.5 µM; in test [6] it was over 100 µM. The compound also registered a TGI in test [7] of 79.1 µM.

As for `C[C@@H](Oc1cc(NS(=O)(=O)N2CCC2)nc(SCc2cccc(F)c2F)n1)[C@@H](O)CO`, the GI50 in test [1], in test [2], in test [3], in test [4], in test [5] and in test [6] was over 100 µM each time. Further, in test [7], the GI50 is over 100 µM. Besides, the TGI in test [1], in test [2], in test [3], in test [4], in test [5] and in test [6] was over 100 µM in each case. For the same compound, the TGI in test [7] was over 100 µM.

For the compound `NCCCn1c2c(c3cc4c(cc3c1=O)OCO4)C(=O)c1ccccc1-2`, the GI50 is 4.09 µM in test [1], 0.181 µM in test [2], 10.5 µM in test [4] and 0.0575 µM in test [5]. For the same compound, the TGI is 24.8 µM in test [1]; 0.602 µM in test [2]; over 100 µM in test [4]; over 100 µM in test [5]; 0.208 µM in test [6].

As to `COc1cc2c(=O)n(CCCn3ccnc3)c3c4cc5c(cc4ccc3c2cc1OC)OCO5`, the GI50 in test [1] was 0.246 µM; in test [2], 0.669 µM; in test [3], 0.316 µM; in test [4], 0.443 µM; in test [5] it was 0.492 µM. Also, the TGI in test [1] is over 100 µM; in test [2], over 100 µM; in test [3] it was 14.3 µM; in test [4] it was 11.3 µM; in test [5], over 100 µM.

Regarding `CN(C1=NS(=O)(=O)N=C(N(C)c2ccccc2)O1)c1ccccc1`, the TGI came to 33.1 µM in test [1]; 50.4 µM in test [2]; 20.4 µM in test [3]; 78.8 µM in test [4]; 54.3 µM in test [5]; 43.9 µM in test [6]. This compound came in with a TGI in test [7] of 47 µM.

As to `CCOC(=O)C#Cc1ccc([N+](=O)[O-])cc1`, the TGI in test [1] is 7.78 µM; in test [2] it was 11.9 µM; in test [3], 2.63 µM; in test [4], 25.6 µM; in test [5], 2.94 µM; in test [6], 4.68 µM. Also, in test [7], the TGI turned out to be 2.83 µM.

On to `CCC1CCCCN1C(=S)N/N=C(\C)c1ccccn1` (configuration not stated), for which the GI50 is 0.561 µM in test [1]; 0.0238 µM in test [2]; 0.488 µM in test [3]; 0.304 µM in test [4]; under 0.0253 µM in test [5]; 0.0423 µM in test [6]. Moreover, the GI50 in test [7] is 0.416 µM. Also, the TGI in test [1] is 2.13 µM; in test [2], over 100 µM; in test [3] it was 1.91 µM; in test [4] it was 2.46 µM; in test [5], 4.69 µM; in test [6] it was 1.89 µM. For the same compound, the TGI in test [7] stood at 4.88 µM.
